# Test results from PubChem BioAssay (NCI).
# Values joined by “and” are separate entries in the source; they are usually repeats but may differ in a detail not shown here. Equal entries are not always repeated.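 Compound exposure: 48 hours, 5 concentrations, 96-well plates. Here, GI50 denotes the concentration required for 50% inhibition of growth. The concentration for full growth arrest is given as TGI.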
# Key:
# Assay in all cases: NCI-60 cell line screen, 48 h
# [1] = system: CAKI-1 renal
# [2] = system: HL-60(TB) leukemia
# [3] = system: HOP-92 NSCLC
# [4] = system: IGROV1 ovarian
# [5] = system: K-562 leukemia
# [6] = system: OVCAR-4 ovarian
# [7] = system: OVCAR-5 ovarian
# [8] = system: OVCAR-8 ovarian
# [9] = system: RXF 393 renal
# [10] = system: SK-MEL-5 melanoma
SMILES,GI50 [1],TGI [1],GI50 [2],TGI [2],GI50 [3],TGI [3],GI50 [4],TGI [4],GI50 [5],TGI [5],GI50 [6],TGI [6],GI50 [7],TGI [7],GI50 [8],TGI [8],GI50 [9],GI50 [10],TGI [10],TGI [9]
COc1ccc(OC(=O)O[C@H]2[C@H](O[C@H]3[C@@H](O)COC(O[C@H]4C[C@H]5[C@@H]6CC=C7C[C@@H](O)CC[C@]7(C)[C@H]6CC[C@]5(C)[C@H]4[C@H](C)C(=O)CCC(C)C)[C@@H]3OC(C)=O)OC[C@@H](O)[C@@H]2O)cc1 (some centres not stated),0.0281 µM,1.63 µM,0.0686 µM,18.7 µM,0.013 µM,2.72 µM,0.335 µM,18.2 µM,< 0.01 µM,10.6 µM,1.12 µM,20.3 µM,0.89 µM,15.9 µM,12.7 µM,50.6 µM,< 0.01 µM,0.0347 µM,0.176 µM,
CCN(CC)C(=O)C/C(C)=N/NC(=O)c1ccncc1,,,,> 100 µM,,> 100 µM,,> 100 µM,,> 100 µM,,,,> 100 µM,,> 100 µM,,,> 100 µM,> 100 µM
Cc1cccc(N2C(=O)C(Cl)=C(Cl)C2=O)c1,,> 56.9 µM,,> 100 µM,,> 78.6 µM,,> 100 µM,,> 83.2 µM,,> 71.7 µM,,> 100 µM,,> 100 µM,,,> 100 µM,30.7 µM
CC[C@H](C)[C@H](NC(=O)[C@H]1CCCCN1C)C(=O)N(C)[C@H](CCc1nc(C(=O)N[C@@H](Cc2ccccc2)C[C@H](C)C(=O)OC)cs1)C(C)C,,,0.0677 µM,0.242 µM,0.292 µM,8.33 µM,0.316 µM,> 25 µM,0.121 µM,> 25 µM,1.36 µM,> 25 µM,1.12 µM,> 25 µM,0.717 µM,> 25 µM,0.308 µM,0.0745 µM,1.02 µM,> 25 µM
O=c1[nH]c(=O)n(C2CC(O)C(CS)O2)cc1F (configuration not stated),,> 100 µM,,> 100 µM,,> 96.7 µM,,> 100 µM,,> 100 µM,,> 100 µM,,> 100 µM,,> 63.1 µM,,,> 100 µM,> 100 µM
CCCNC(=S)N/N=C(\C)c1ccccn1,0.22 µM,> 80.7 µM,,0.333 µM,0.115 µM,> 100 µM,< 0.01 µM,> 100 µM,0.0153 µM,> 100 µM,< 0.01 µM,0.0441 µM,0.529 µM,> 100 µM,0.0667 µM,> 100 µM,0.847 µM,0.213 µM,2.55 µM,6.55 µM
COC(=O)C1=C(c2ccc3c(c2)OCO3)O[C@H](c2ccc3c(c2)OCO3)[C@H]1COC(C)=O,,> 100 µM,,> 100 µM,,> 100 µM,,> 100 µM,,> 100 µM,,> 100 µM,,> 100 µM,,> 100 µM,,,75.2 µM,> 100 µM
COc1ccc(C2CC(=O)c3c(O)c(OC)c(OC)c(OC)c3O2)c(O)c1 (configuration not stated),0.781 µM,60.4 µM,0.0459 µM,0.632 µM,0.0574 µM,13.9 µM,0.535 µM,39.6 µM,0.0378 µM,26.2 µM,1.18 µM,66.9 µM,5.57 µM,93.4 µM,0.294 µM,40.9 µM,0.243 µM,0.0673 µM,2.03 µM,25.5 µM
CC(=O)[O][Hg][c]1c(C)c(C)c(C)c(C)c1C,3.02 µM,7.69 µM,1.91 µM,4.75 µM,1.6 µM,3.12 µM,0.604 µM,2.2 µM,0.468 µM,2.63 µM,2.04 µM,4.47 µM,3.33 µM,8.74 µM,1.93 µM,3.88 µM,0.712 µM,1.38 µM,2.74 µM,1.93 µM
COC(=O)[C@]12CCC(C)(C)C[C@H]1C1=CC[C@@H]3[C@@]4(C)C/C(=C/c5cccnc5)C(=O)C(C)(C)[C@@H]4CC[C@@]3(C)[C@]1(C)CC2,6.87 µM,22.3 µM,2.06 µM,5.2 µM,1.87 µM,8.41 µM,5.2 µM,31.5 µM,3.2 µM,> 100 µM,11.3 µM,> 100 µM,14.1 µM,38.2 µM,3.82 µM,60.8 µM,4.25 µM,5.58 µM,17.9 µM,17.5 µM
CCOC(=O)NC(=O)c1cn(CCCOC(=O)NCCCCCCNC(=O)OCCCn2c(=O)c(C(=O)NC(=O)OCC)cn(C)c2=O)c(=O)n(C)c1=O,,> 100 µM,,> 100 µM,,> 100 µM,,> 100 µM,,> 100 µM,,> 100 µM,,> 100 µM,,> 100 µM,,,,92.4 µM
NCCCCn1c2c(c3ccccc3c1=O)C(=O)c1ccccc1-2,0.0447 µM,0.555 µM,0.0382 µM,0.0919 µM,0.0363 µM,0.535 µM,0.314 µM,,0.168 µM,,0.542 µM,5.08 µM,0.494 µM,1.37 µM,0.0902 µM,0.625 µM,0.644 µM,0.153 µM,1.25 µM,
Cc1cc(C2CCCCC2)n(O)c(=O)c1,1.8 µM,21.4 µM,,10.1 µM,,21.5 µM,0.989 µM,> 100 µM,,> 100 µM,0.75 µM,> 100 µM,6.13 µM,> 100 µM,1.92 µM,> 100 µM,3.02 µM,1.49 µM,7.38 µM and 38.3 µM,> 100 µM and 97.2 µM
O=C(NC1CCCCCC1)C1C(=O)N(C2CCCCCC2)C(=O)/C1=N\O (configuration not stated),,> 100 µM,,47.8 µM,,46.1 µM,,> 100 µM,,> 100 µM,,> 100 µM,,> 100 µM,,> 100 µM,,,> 100 µM,48.2 µM
COc1cccc(NCc2nnc(Nc3ccc(Cl)cc3)c3ccccc23)c1,,,3.78 µM,13.1 µM,0.329 µM,2.91 µM,0.904 µM,6.3 µM,1.49 µM,13.1 µM,1.33 µM,17.6 µM,3.38 µM,11.8 µM,3.61 µM,14.7 µM,2.16 µM,0.819 µM,4.18 µM,6.11 µM
N#Cc1cnsc1,,> 100 µM,,> 100 µM,,> 100 µM,,> 100 µM,,> 100 µM,,> 100 µM,,> 100 µM,,> 100 µM,,,> 100 µM,> 100 µM
Nc1nccc(-c2c(-c3ccc(F)cc3)ncn2CCCN2CCOCC2)n1,> 25 µM,> 25 µM,> 25 µM,> 25 µM,> 21.7 µM,> 25 µM,> 25 µM,> 25 µM,> 25 µM,> 25 µM,> 25 µM,> 25 µM,> 25 µM,> 25 µM,> 25 µM,> 25 µM,> 17 µM,> 25 µM,> 25 µM,> 25 µM
CCCCNC(=O)NS(=O)(=O)c1ccc(N2N=C(c3ccc(C)cc3C)CC2c2ccc(N(C)C)cc2)cc1 (configuration not stated),3.38 µM,> 100 µM,3.48 µM,13.6 µM,2.39 µM,31.4 µM,4.87 µM,> 100 µM,3.58 µM,> 100 µM,5.41 µM,> 100 µM,5.24 µM,96.1 µM,3.68 µM,> 100 µM,4.06 µM,2.22 µM,5.42 µM,15.7 µM
COc1ccc(/C(=N/Nc2ccc([N+](=O)[O-])cc2)Sc2cc(Cl)c(C)cc2S(N)(=O)=O)cc1,4.44 µM,9.47 µM,40.3 µM,> 100 µM,2.47 µM,8.01 µM,9.65 µM,> 93.2 µM,4.67 µM,15.4 µM,2.61 µM,7.11 µM,7.59 µM,19.2 µM,7.28 µM,> 57 µM,4.3 µM,0.706 µM,7.43 µM,11.5 µM
CC(=O)SCCC1c2[nH]c3ccccc3c2CCN1O (configuration not stated),,> 100 µM,,> 100 µM,,> 100 µM,,> 100 µM,,> 100 µM,,> 100 µM,,> 100 µM,,> 100 µM,,,> 100 µM,> 100 µM
COc1cc2c3c(n(CCCBr)c(=O)c2cc1OC)-c1ccc(NC(C)=O)cc1C3=O,1.09 µM,7.21 µM,0.55 µM,7.78 µM,73.4 µM,> 100 µM,10.8 µM,> 100 µM,3.84 µM,28.3 µM,32.3 µM,> 100 µM,52.6 µM,> 100 µM,18.7 µM,> 100 µM,13.3 µM,2.45 µM,13.7 µM,38.2 µM
CCCN(CCCCC(NC(C)=O)C(=O)NCc1ccccc1)C(=O)N(CCCl)N=O (configuration not stated),,> 100 µM,,> 86 µM,,> 100 µM,,> 100 µM,,> 100 µM,,> 100 µM,,> 100 µM,,> 100 µM,,,> 100 µM,98.9 µM
CCCCC/C=C/C/C=C/CCCCCCCC1=NC(C)(C)CN1C(C)C,1.3 µM,2.57 µM,1.48 µM,3.43 µM,1.31 µM,3.37 µM,1.23 µM,2.47 µM,,,1.55 µM,3 µM,1.87 µM,4.1 µM,,,2.1 µM,,,4.8 µM
Cc1ccc(NC(=O)C2C(=O)N(c3ccc(C)c(C)c3)C(=O)/C2=N/O)cc1C (configuration not stated),,> 100 µM,,> 100 µM,,> 100 µM,,> 100 µM,,> 100 µM,,,,> 100 µM,,> 100 µM,,,> 100 µM,> 100 µM
Cc1cc(C)cc(Nc2cc(C)nc3nc(C(F)(F)F)nn23)c1,> 100 µM,> 100 µM,> 100 µM,> 100 µM,26.2 µM,97.9 µM,> 100 µM,> 100 µM,,,> 100 µM,> 100 µM,> 100 µM,> 100 µM,> 100 µM,> 100 µM,24.3 µM,> 100 µM,> 100 µM,> 100 µM
CSc1ccc(/C=C2/C[N+](C)(C)C/C(=C/c3ccc(SC)cc3)C2=O)cc1,,,,9.82 µM,,42.1 µM,,,,> 100 µM,,,,44 µM,,,,,,31.6 µM
CN1C(NC(=O)c2ccc(Cl)nc2)=NS(=O)(=O)c2cc(Cl)ccc21,> 100 µM,> 100 µM,> 100 µM,> 100 µM,> 100 µM,> 100 µM,> 100 µM,> 100 µM,> 100 µM,> 100 µM,> 100 µM,> 100 µM,,,> 100 µM,> 100 µM,> 100 µM,> 100 µM,> 100 µM,> 100 µM
COc1ccc(C(=O)/C=C/c2cccnc2Nc2cc(OC)c(OC)c(OC)c2)cc1,2.42 µM,14.7 µM,1.27 µM,4.01 µM,2.4 µM,11.8 µM,3.03 µM,21.3 µM,,,1.52 µM,10.1 µM,3.36 µM,10 µM,2.2 µM,11 µM,1.47 µM,2.2 µM,10.6 µM,5.36 µM
COc1ccc(C2CC(=O)c3c(OC)cc(OC)cc3O2)cc1 (configuration not stated),> 100 µM,> 100 µM,,,18.4 µM,> 100 µM,> 100 µM,> 100 µM,> 100 µM,> 100 µM,> 100 µM,> 100 µM,> 100 µM,> 100 µM,> 100 µM,> 100 µM,> 100 µM,> 100 µM,> 100 µM,> 100 µM
CCCCCCCCCCC(O)C1CCC(C2CCC(C(O)CCCCC(O)CCCCCC(O)CC3=CC(C)OC3=O)O2)O1 (configuration not stated),,> 25 µM,> 25 µM,8.62 µM and > 25 µM,3.87 µM,> 25 µM,,,1.81 µM,> 25 µM,,> 25 µM,,> 25 µM,,,,1.83 µM,7.33 µM and > 25 µM,> 25 µM
